The source of these data is patent US8324250B2 (Hoffmann-La Roche Inc., priority 2009, dated 2012).

SMILES strings stand for the structures.

In general, Ki refers to the dissociation constant of the complex between target and ligand, obtained from inhibition or displacement.

The target in the first experiment is T1, recombinant human NK3 receptor (Homo sapiens, UniProt P29371).
T1 construct: expressed in transfected cells; host or cells: HEK293 cells (transient expression), membranes
T1 sequence (P29371 1-465): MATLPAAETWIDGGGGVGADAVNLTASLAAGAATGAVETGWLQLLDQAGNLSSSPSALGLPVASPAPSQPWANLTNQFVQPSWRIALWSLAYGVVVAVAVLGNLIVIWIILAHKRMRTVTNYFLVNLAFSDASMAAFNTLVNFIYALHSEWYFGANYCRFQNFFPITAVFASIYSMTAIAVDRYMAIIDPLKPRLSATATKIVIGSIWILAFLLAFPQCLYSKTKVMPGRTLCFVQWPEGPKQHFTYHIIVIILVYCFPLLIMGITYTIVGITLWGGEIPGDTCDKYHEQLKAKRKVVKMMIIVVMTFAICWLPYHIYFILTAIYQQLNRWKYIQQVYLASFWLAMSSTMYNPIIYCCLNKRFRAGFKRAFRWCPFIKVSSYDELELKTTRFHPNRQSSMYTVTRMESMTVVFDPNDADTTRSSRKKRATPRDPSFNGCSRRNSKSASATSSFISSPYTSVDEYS
As to the kind of experiment: [3H]SR142801 competition binding assay. The settings on record: membranes from HEK293 cells transiently expressing recombinant human NK3 receptor; [3H]SR142801 radioligand; 75 min at RT; Ki by Cheng-Prussoff; read-out: Data Ki (hNK-3 receptor affinity). Summed up:
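Membranes from HEK293 cells transiently expressing the receptor, 5 μg protein/well, in 50 mM Tris-HCl pH 7.4 with 4 mM MnCl2, 1 μM phosphoramidon, 0.1% BSA; nonspecific binding defined with 10 μM SB222200. Filtration and scintillation counting; IC50 from Hill fit, Ki by Cheng-Prussoff using saturation-derived KD, duplicates.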
For `O=C(c1ccc(-c2ccc(F)cc2)cc1)N1CCC(C(=O)NCc2ccc(F)cc2)(c2ccc(F)cc2)CC1` [Example 136, 1-(4′-Fluoro-biphenyl-4-carbonyl)-4-(4-fluoro-phenyl)-piperidine-4-carboxylic acid 4-fluoro-benzylamide], the inhibition constant (Ki) is 54.9 nM. As to `C[C@H](NC(=O)C1(c2ccc(F)cc2)CCN(C(=O)C2CCN(c3ccc(C#N)cn3)CC2)CC1)c1ccc(F)cc1` [Example 156, 1-(5′-Cyano-3,4,5,6-tetrahydro-2H-[1,2′]bipyridinyl-4-carbonyl)-4-(4-fluoro-phenyl)-piperidine-4-carboxylic acid [(S)-1-(4-fluoro-phenyl)-ethyl]-amide], the inhibition constant (Ki) amounted to 87 nM. On to `C[C@H](NC(=O)C1(c2ccccc2)CCN(C(=O)c2ccc(N3CCS(=O)(=O)CC3)cc2)CC1)c1ccc(Cl)cc1` [Example 101, 1-[4-(1,1-Dioxo-1λ6-thiomor-pholin-4-yl)-benzoyl]-4-phenyl-pipendine-4-carboxylic acid [(S)-1-(4-chloro-phenyl)-ethyl]-amide], for which the inhibition constant (Ki) was determined as 17.4 nM.

Turning to `C[C@H](NC(=O)C1(c2ccccc2)CCN(C(=O)c2ccc(-c3ccc(F)cc3)cc2)CC1)c1ccccc1` [Example 54, 1-(4′-Fluoro-biphenyl-4-carbonyl)-4-phenyl-piperidine-4-carboxylic acid ((S)-1-phenyl-ethyl)-amide], the inhibitory constant (Ki) came out at 7.2 nM. With `Cc1nc(-c2ccc(C(=O)N3CCC(C(=O)N[C@@H](C)c4ccccc4)(c4ccccc4)CC3)cc2)cs1` [Example 68], the Ki worked out at 20.9 nM. Regarding `C[C@H](NC(=O)C1(c2ccccc2)CCN(C(=O)c2csc(-c3cccnc3)n2)CC1)c1ccccc1` [Example 28, 4-Phenyl-1-(2-pyridin-3-yl-thiazole-4-carbonyl)-piperidine-4-carboxylic acid ((S)-1-phenyl-ethyl)-amide], the Ki is 76.2 nM.

For the molecule `C[C@H](NC(=O)C1(c2ccccc2)CCN(C(=O)N2CCN(c3ccc(F)cc3)CC2)CC1)c1ccc(F)cc1` [Example 203, 1-[4-(4-Fluoro-phenyl)-piperazine-1-carbonyl]-4-phenyl-piperidine-4-carboxylic acid [(S)-1-(4-fluoro-phenyl)-ethyl]-amide], the inhibition constant (Ki) was 8.7 nM.

For `C[C@H](NC(=O)C1(c2ccc(F)cc2)CCN(C(=O)c2ccc(-c3ccc(F)cc3)cc2)CC1)C1CCCCC1` [Example 92, 1-(4′-Fluoro-biphenyl-4-carbonyl)-4-(4-fluoro-phenyl)-piperidine-4-carboxylic acid ((S)-1-cyclohexyl-ethyl)-amide], the Ki is 5.1 nM. On the same count and under the same terms, then `C[C@H](NC(=O)C1(c2ccccc2)CCN(C(=O)N2CCN(c3ccc(F)cc3)CC2)CC1)c1ccccc1` [Example 213, 1-[4-(4-Fluoro-phenyl)-piperazine-1-carbonyl]-4-phenyl-piperidine-4-carboxylic acid ((S)-1-phenyl-ethyl)-amide], with 8.8 nM; and `Cc1noc(C2CCN(C(=O)N3CCC(C(=O)N[C@@H](C)c4ccccc4)(c4ccccc4)CC3)CC2)n1` [Example 214, 1-[4-(3-Methyl-[1,2,4]oxadiazol-5-yl)-piperidine-1-carbonyl]-4-phenyl-piperidine-4-carboxylic acid ((S)-1-phenyl-ethyl)-amide], with 9 nM. In the case of `N#Cc1ccc(N2CCC(C(=O)N3CCC(C(=O)N[C@H](c4cccc(F)c4)C4CC4)(c4ccc(F)cc4)CC3)CC2)nc1` [Example 195, 1-(5′-Cyano-3,4,5,6-tetrahydro-2H-[1,2′]bipyridinyl-4-carbonyl)-4-(4-fluoro-phenyl)-piperidine-4-carboxylic acid [(S)-cyclopropyl-(3-fluoro-phenyl)-methyl]-amide], the inhibition constant (Ki) stood at 15 nM. Take `Cc1ccc(N2CCN(C(=O)N3CCC(C(=O)N[C@@H](C)c4ccccc4)(c4ccccc4)CC3)CC2)cc1` [Example 208, 4-Phenyl-1-(4-p-tolyl-piperazine-1-carbonyl)-piperidine-4-carboxylic acid ((S)-1-phenyl-ethyl)-amide]: the inhibition constant (Ki) was found to be 70.9 nM. Regarding `C[C@H](NC(=O)C1(c2ccccc2)CCN(C(=O)c2ccc(-c3cncnc3)cc2)CC1)c1ccccc1` [Example 44, 4-Phenyl-1-(4-pyrimidin-5-yl-benzoyl)-piperidine-4-carboxylic acid ((S)-1-phenyl-ethyl)-amide], the inhibition constant (Ki) worked out at 78.5 nM.

Turning to `C[C@H](NC(=O)C1(c2ccccc2)CCN(C(=O)N2CCN(c3ccc(Cl)cc3)CC2)CC1)c1ccccc1` [Example 219, 1-[4-(4-Chloro-phenyl)-piperazine-1-carbonyl]-4-phenyl-piperidine-4-carboxylic acid ((S)-1-phenyl-ethyl)-amide], the inhibitory constant (Ki) came to 12.5 nM. For `Cc1ccccc1N1CCN(C(=O)N2CCC(C(=O)N[C@@H](C)c3ccccc3)(c3ccccc3)CC2)CC1` [Example 229, 4-Phenyl-1-(4-o-tolyl-piperazine-1-carbonyl)-piperidine-4-carboxylic acid ((S)-1-phenyl-ethyl)-amide], the Ki came out at 34.9 nM.

On to `Cc1noc(-c2ccc(C(=O)N3CCC(C(=O)N[C@@H](C)C4CCCCC4)(c4ccc(F)cc4)CC3)cc2)n1` [Example 90], for which the Ki was 2.6 nM. `C[C@H](NC(=O)C1(c2ccccc2)CCN(C(=O)N2CCN(c3cc(C#N)ccn3)CC2)CC1)c1ccccc1` [Example 225, 1-[4-(4-Cyano-pyridin-2-yl)-piperazine-1-carbonyl]-4-phenyl-piperidine-4-carboxylic acid ((S)-1-phenyl-ethyl)-amide]: the Ki came out at 50.6 nM. Still for that read-out and setting: then `CC(C)c1nc(-c2ccc(C(=O)N3CCC(C(=O)N[C@@H](C)c4ccccc4)(c4ccccc4)CC3)cc2)no1` [Example 66, 1-[4-(5-Isopropyl-[1,2,4]oxa-diazol-3-yl)-benzoyl]-4-phenyl-piperidine-4-carboxylic acid ((S)-1-phenyl-ethyl)-amide], with 59 nM; and `C[C@H](NC(=O)C1(c2ccccc2)CCN(C(=O)N2CCN(c3ccc(C#N)cn3)CC2)CC1)c1ccccc1` [Example 227, 1-[4-(5-Cyano-pyridin-2-yl)-piperazine-1-carbonyl]-4-phenyl-piperidine-4-carboxylic acid ((S)-1-phenyl-ethyl)-amide], with 24.9 nM.

Tested on in a further experiment: not given
Experiment: not given
The settings on record: phase II trial; negative symptoms (depression, anhedonia, social isolation, memory and attention deficits); cited from earlier work.
As to `CC(=O)N(C)C1(c2ccccc2)CCN(CCC[C@]2(c3ccc(Cl)c(Cl)c3)CCCN(C(=O)c3ccccc3)C2)CC1` [SR 142,801, Osanetant], the “activity in the treatment of negative symptoms of schizophrenia” value is “inactive”.

Still in this experiment, the particulars now being: phase II trial; positive symptoms (altered behaviour, delusion, hallucinations, extreme emotions, excited motor activity, incoherent speech); cited from earlier work.
Take `CC(=O)N(C)C1(c2ccccc2)CCN(CCC[C@]2(c3ccc(Cl)c(Cl)c3)CCCN(C(=O)c3ccccc3)C2)CC1` [SR 142,801, Osanetant]: the “activity on positive symptoms of schizophrenia” value was “active”.
